Experimental data: US20020132220A1, “Use of selectin antagonists in organ preservation solutions” (priority 2000, published 2002)
Where a name gives a salt, the structure may show the parent alone.

Legend:
rat kidney [1] = assay: Syngeneic rat kidney transplantation (Lewis to Lewis) after flushing the kidney with perfusate; ischemia/reperfusion injury; type: in vivo; conditions: for Blood Urea Nitrogen / Serum Creatinine / GFR: syngeneic transplantation; for GFR: 4° C., 30 min on ice
Protocol: (§1) To determine the effects of bimosiamose on the ischemia/reperfusion component of transplant injury, the following experiment was performed. To test bimosiamose solutions, a rat kidney is flushed with a solution containing bimosiamose (compound 1, 1,6-bis-(3-(3-carbomethylphenyl)-4-(2-α-D-mannopyranosyloxy)phenyl)hexane disodium salt, prepared according to the procedure described in U.S. Pat. No. 5,919,768) upon harvest from a donor and prior to placement into a recipient, to determine whether or not there is any protective effect. Rats for both examples were supplied by Harlan. A syngeneic transplantation model (Lewis rat to Lewis rat) was utilized. In this model, the immune system mediated rejection component is not relevant since the donor and recipient are of similar genetic background (syngeneic). In this experiment, test bimosiamose solutions were made up in a concentration of 100 mg/ml in phosphate-buffered saline solution, at a pH of 7.4. Test amounts of bimoisamose solution (as indicated in column 1 of Table 1) were added to Collins solution, to form the test perfusate solution. The Collins solution was purchased from Baxter, and contained 740 mg dibasic potassium phosphate, 205 mg monobasic potassium phosphate, 112 mg potassium chloride and 84 mg sodium bicarbonate per 100 mL solution, at pH 7.4. The test perfusate solution was cooled to a temperature of 4° C., and then 2 ml was utilized to perfuse the organ, which was afterwards maintained on ice for thirty minutes. Perfusion pressure was at or below physiologic pressure during the perfusion.
(§2) Following the 30 minute cold-temperature perfusion, transplantation was performed by transplanting a graft organ using end-to-end anastomosis of the renal artery, vein and ureter, with a simultaneous contralateral nephrectomy, wherein when the graft fails, the recipient does shortly thereafter.
This injury is the result of 30 minutes of cold ischemia with an additional 30 minutes of warm ischemia during the surgical re-anastomosis. N in the first column of Table 1 indicates sample size, i.e.—when N=6, six animals were tested. […] These observations are supported by reductions in serum creatinine and blood urea nitrogen (see Table 1). Therefore, Table 1 illustrates a statistically significant improvements associated with bimosiamose treatment.

rat kidney [2] = assay: Allogeneic rat kidney transplantation (Lewis to ACI) after flushing the kidney with perfusate; graft/recipient survival; type: in vivo, Lewis rats to ACI rats; conditions: for Survival: allogeneic transplantation, no immunosuppression
Protocol: as §1, §2
The procedure described in Example 1 was also utilized to determine what effect bimosiamose solutions would have when transplantation between donor and recipient were not matched for histocompatibility (test rats are allogenic). […]

[3] = kidney perfused with 0.5 mg/ml in Collins solution
[4] = kidney perfused with 1.0 mg/ml in Collins solution

SMILES: O=C(O)Cc1cccc(-c2cc(CCCCCCc3ccc(OC4OC(CO)C(O)C(O)C4O)c(-c4cccc(CC(=O)O)c4)c3)ccc2OC2OC(CO)C(O)C(O)C2O)c1 [Cmpd. 1, 1,6-bis-(3-(3-carbomethylphenyl)-4-(2-α-D-mannopyranosyloxy)phenyl)hexane disodium salt]
- Renal function (in words) (rat kidney [1]; flushing the organ with a solution containing 1 mg/2 ml or 2 mg/2 ml): preservation of renal function
- Blood Urea Nitrogen (rat kidney [1]; [3]): 49.8 ± 24.2 mg/dL
- Serum Creatinine (rat kidney [1]; [3]): 0.62 ± 0.23 mg/dL
- GFR (rat kidney [1]; [3]): 0.70 ± 0.37 mL/min
- Blood Urea Nitrogen (rat kidney [1]; [4]): 32.0 ± 4.6 mg/dL
- Serum Creatinine (rat kidney [1]; [4]): 0.48 ± 0.08 mg/dL
- GFR (rat kidney [1]; [4]): 0.91 ± 0.08 mL/min
- Survival (rat kidney [2]; kidney flushed with 0.5 mg/ml): 18.50 ± 6.45 days
- Survival (rat kidney [2]; kidney flushed with 1.0 mg/ml): 30.25 ± 13.25 days
- Graft function/survival (in words) (rat kidney [2]; renal allografts flushed with solution, without standard immunosuppressive agents): dose-related preservation of graft function/survival
